Experimental data published in US9388215B2, “Compositions and methods of using islet neogenesis peptides and analogs thereof” (SHENZHEN HIGHTIDE BIOPHARMACEUTICAL, LTD., priority 2013, dated 2016).
Where two headings read alike, the source gives them in different places.

How the values were obtained:
[1] = Peptide concentration in plasma and pancreas 30 min post dose; type: in vivo, rat; conditions: male SD rats, sc bolus 25 mg/kg, 30 min post-dose; for level at 0.5 h: male, Sprague-Dawley, rat, sc, 25 mg/kg
Protocol: To further characterize the pharmacokinetic (PK) properties of peptides, peptide concentration in pancreas—the target organ, was determined 30 min post dose. Briefly, INGAP-PP (Peptide 1), Peptide 12, or Peptide 31 was dissolved in sterile normal saline and then was administered via subcutaneous (sc) bolus at the dose level of 25 mg/kg to male Sprague-Dawley (SD) rats. Five animals in each group were used for blood and pancreas collection at the time point of 30 min post-dose. Blood samples (approximately 400 μL) were collected and placed into tubes containing EDTA-K2 and centrifuged at 8000 rpm for 6 minutes at 4° C. to separate plasma from the samples. After blood extraction and animal sacrifice, the pancreas was removed immediately from each animal, cleared of fat and lymph nodes, weighed, and placed into 5 fold volume of ice cold sterile normal saline with protease inhibitor cocktail (Merck Millipore, catalogue #539137) to homogenize with a homogenizer.
The peptide concentration of the plasma and pancreatic homogenate was determined immediately using tandem mass spectrometry (LC-MS/MS) analysis and the results are presented in Table 8.

[2] = Peptide stability in rat plasma; type: in vitro ADME; conditions: 100 μg/mL, 37° C.; FIG. 12, 13
Protocol: The stability of peptides was also tested in rat, mouse and human plasma. Briefly, a certain amount of peptides and eucatropine powder (positive control) was accurately weighed. Test compounds were dissolved in 50% methanol-water solution and diluted to 20 mg/mL, and eucatropine was dissolved in dimethylsulfoxide (DMSO) and diluted to 10 mM, as a stock solution. Eucatropine stock solution was diluted to 0.2 mM with DMSO as a working solution. A stop reagent was prepared containing 200 ng/mL midazolam and tolbutamide in acetonitrile. A volume of 300 μL of stop solution was added to each well of a 96-well deep-well plate placed on ice beforehand.
For the stability studies, peptides and eucatropine were spiked into plasma respectively, mixed well, and then 100 μL of each mixture solution was transferred into the pre-cooled stop reagent as 0 time point sample. The remaining mixtures were incubated in a 37° C. water bath with shaking at 100 rpm (n=2). The final incubation concentration was 1 μM for eucatropine and 100 μg/mL for all test compounds.
At desired time points, 100 μL of incubation mixture was transferred to the stop reagent to precipitate proteins. Samples were vortexed and centrifuged at RCF 5000×g for 10 minutes, and supernatant was transferred to a test plate. The samples were analyzed by LC-MS/MS.
Slope was calculated by plotting the natural logarithm of the percentage of remaining amount of test compounds and time, and T1/2 was calculated in accordance with the following formula.
For stability in rat plasma, the incubation time was 0, 15, 30, 60 and 120 min for Peptide 1 and eucatropine, and 0, 15, 30, 60, 120, and 240 min for Peptide 12, Peptide 16, Peptide 29 and Peptide 31.
In another stability study in rat plasma, the incubation time was 0, 30, 60 120 and 240 min for Peptide 2, Peptide 52, Peptide 64 and eucatropine.

[3] = type: physicochemical; conditions: pH 5
Protocol: Peptide stability in buffers was tested for INGAP-PP and selected analogs. 10 mg/mL of Peptide 1, Peptide 12, Peptide 16, Peptide 29 or Peptide 31 was dissolved in isotonic buffers with pH ranging from 4.0 to 8.0. […] Peptide 12 and Peptide 29 were stable in an isotonic phosphate buffer (pH 7.4) for more than 90 days at 4° C. (there was no sign of degradation at 90 days sample check point), and 60 days at 25° C.

pancreatic islets = experiment: Glucose-stimulated insulin secretion (GSIS) of isolated islets; type: cell-based, rat; conditions: 12.0 mM glucose; 10 μg/mL peptide or 100 nM GLP-1; 60 min; FIG. 8
Protocol: The pancreases were procured from male adult Sprague-Dawley (SD) rats. After 7 days acclimation, the animals were sacrificed by cervical dislocation and the entire pancreas was removed and digested with collagenase to isolate islets. After digestion, islets were maintained at 37° C. in RPMI 1640 (Carlsbad Calif., USA) pH 7.4, containing 10% (v/v) fetal calf serum, 1% penicillin/streptomycin, and 10 mM glucose in a humid atmosphere (5% CO2/95% O2), without the addition of any compound (control), or with the addition of 100 nM glucagon like peptide-1 (GLP-1); or 10 μg/mL Peptide 1, Peptide 12, or Peptide 16, as summarized in Table 4 below. Cultured islets were rinsed in Krebs-Ringer bicarbonate buffer (KRB), pH 7.4, previously gassed with a mixture of CO2/O2 (5/95%), and pre-incubated in 1.0 ml of KRB containing 0.5% (w/v) BSA and 1.5 mM glucose at 37° C. for 45 min. After this period, groups of 5 islets were incubated in 0.6 ml KRB with the addition of 1.5 or 12.0 mM glucose, with or without the addition of peptides for 60 min. At the end of the incubation period, aliquots of the medium were collected for insulin quantitation.

[4] = Pharmacokinetics in rat, intravenous bolus; type: in vivo; conditions: male, Sprague-Dawley, plasma, RAT (IV), 25 mg/kg; for AUC(0-t): read-out: AUC(0-t); for AUC(0-inf): read-out: AUC(0-∞); for Cmax: read-out: Cmax
Protocol: After 7 days acclimation, male Sprague-Dawley (SD) rats weighing 210-250 g, or male C57BL/6 mice, weighing 19-24 g, in good health were used in the study. Peptide 1, Peptide 12 and Peptide 16 were dissolved in sterile normal saline and then they were injected via subcutaneous (sc) bolus or intravenous (iv) bolus at the dose level of 25 mg/kg. Three animals in each group were used for blood collection at the time point of 5 min, 15 min, 30 min, 1 h, 2 h, 4 h, 6 h, 8 h and 24 h post-dose. Blood samples (approximately 400 μL) were collected and placed into tubes containing EDTA-K2 and centrifuged at 8000 rpm for 6 minutes at 4° C. to separate plasma from the samples. The resulting plasma was stored frozen at −80° C. until being analyzed. Plasma concentrations of peptides were determined using tandem mass spectrometry (LC-MS/MS) analysis. A non-compartmental module of WinNonlin® Professional 5.2 (Pharsight; St. Louis Mo.), was used to calculate PK parameters. The abbreviation AUC(0-t) represents area under the curve from the time of dosing to the time of the last observation, the AUC(0-∞) represents area under the curve from the time of dosing to infinity, and the Cmax represents maximum concentration detected.

[5] = plasma, read-out: Peptide concentration, Plasma

In the case of “Ac-IGLHDPSHGTLPNGS-NH2 [Peptide 31, Ac-IGLHDPSHGTLPNGS-NH2]”, the level at 0.5 h ([1]; pancreas (homogenate), pancreatic homogenate, read-out: Peptide concentration, Pancreas) is reported as 1630 ± 340 ng/mL, the level at 0.5 h [1, 5] is reported as 15400 ± 3520 ng/mL and the “stability in rat plasma” value [2] is reported as “exhibited good stability in rat plasma and were more stable than INGAP-PP”. The “time stable in isotonic acetate buffer (pH 5.0) at 4° C.” value [3] was “up to 90 days” and the “time stable in isotonic acetate buffer (pH 5.0) at 25° C.” value [3] was “less than 7 days”.

In the case of “Ac-IGLHDPSHGTLPNGS-OH [Peptide 16, Ac-IGLHDPSHGTLPNGS-OH]”, the “glucose-stimulated insulin release vs islets without peptide” value (pancreatic islets) is reported as “released significantly more insulin than those cultured without the addition of peptides”, the “stability in rat plasma” value [2] is reported as “exhibited good stability in rat plasma and were more stable than INGAP-PP” and the AUC(0-t) [4] is reported as 12200 ng·h/mL. The AUC(0-inf) [4] was 12200 ng·h/mL, the Cmax [4] was 45200 ng/mL and the “time stable in isotonic acetate buffer (pH 5.0) at 4° C.” value [3] was “up to 90 days”. The “time stable in isotonic acetate buffer (pH 5.0) at 25° C.” value [3] was “less than 7 days”.

With “H-IGLHDPSHGTLPNGS-OH [Peptide 1, H-IGLHDPSHGTLPNGS-OH, reference compound]” the “glucose-stimulated insulin release vs islets without peptide” value (pancreatic islets) was “no stimulation was observed”, the “Peptide concentration, Pancreas” value ([1]; pancreatic homogenate) was “NA (Below the lower limit of quantitation (LLOQ) 2.5 ng/mL)” and the level at 0.5 h [1, 5] was 210 ± 107 ng/mL. It also gave an AUC(0-t) [4] of 21.9 ng·h/mL, an AUC(0-inf) [4] of 27.1 ng·h/mL and a Cmax [4] of 48.7 ng/mL.
